According to patent US20250186374A1 (priority 2022, published 2025):
“Also recorded” adds a separate entry of the source. Read-outs that look alike come from different tables or passages of the source.

Tests used:
SARS-CoV-2 [1] = assay: microbe, parasite or virus in culture; type: cell-based
SARS-CoV-2 [2] = assay: Clinical examples 1-3, treatment of COVID-19 / SARS-CoV-2 positive subjects; type: in vivo
Text: Example 1: The following example describes treatment strategies for COVID-19 involving oral administration of an antiviral composition.
A physician diagnoses a patient with COVID-19. The patient is experiencing mild symptoms. […] The patient is to take the tablet once a day for one week. The patient is highly responsive and their symptoms go away after 2 days.
Example 2: The following example describes treatment strategies for intravenous administration of an antiviral composition.
A diabetic patient is hospitalized with severe COVID-19. […] The medication is added to an IV solution and delivered intravenously, twice a day for three days. The patient is highly responsive and experiences a reduction in their symptoms during the initial treatment period.
A subject tests positive for SARS-CoV-2 but is asymptomatic. […] The subject sprays the inside of their nose once a day for 5 days. The subject remains asymptomatic.

SARS-CoV-2 3CLpro [3] = molecular target: T1, SARS-CoV-2 3CLpro (Severe acute respiratory syndrome coronavirus 2, UniProt P0DTD1); assay: Enzyme kinetics, Lineweaver-Burk plots; type: biochemical; conditions: for Inhibition Type: Michaelis-Menten kinetics; for effect on Vmax of 3CLpro: compared to the DMSO control, 5 μM or 10 μM inhibitor
SARS-CoV-2 3CLpro [4] = molecular target: T1, SARS-CoV-2 3CLpro; assay: biochemical; type: biochemical; conditions: for inhibitory activity in library screen: compound concentration of 100 μM
SARS-CoV-2 3CLpro [5] = molecular target: T1, SARS-CoV-2 3CLpro; assay: Inhibition of cleavage of TriPro substrate protein, SDS-PAGE; type: biochemical; conditions: 0.8 μM 3CLpro
SARS-CoV-2 3CLpro [6] = molecular target: T1, SARS-CoV-2 3CLpro; assay: Surface plasmon resonance binding to immobilized 3CLpro; conditions: 0.164-100 μM, 25° C.
SARS-CoV-2 3CLpro [7] = molecular target: T1, SARS-CoV-2 3CLpro; assay: Microscale thermophoresis ligand binding; conditions: 10 nM labeled 3CLpro; read-out: KD (MST)
Text: Monolith NT.115 Microscale Thermophoresis (MST) instrument (NanoTemper Technologies) was used for this assay. Monolith protein labeling kit RED-NHS was purchased from NanoTemper Technologies. Briefly, 3CLpro protein was labeled using RED-NHS labelling kit (NanoTemper) following the manufacturer's instructions. […] The assay was read in 20% excitation power and medium MST power.

SARS-CoV = conditions: cited from earlier work
SARS-CoV 3CLpro = SARS-CoV 3CLpro (Severe acute respiratory syndrome coronavirus, UniProt P0C6X7); conditions: cited from earlier work
SARS-CoV-2 3CLpro [8] = molecular target: T1, SARS-CoV-2 3CLpro; conditions: at 50 μM concentration; cited from earlier work
[9] = Severe acute respiratory syndrome coronavirus 2, Table 2 and text, SARS-CoV-2 viral replication, cell-based antiviral assay
[10] = Severe acute respiratory syndrome coronavirus 2, 48 h
[11] = FRET peptide substrate, 200 nM 3CLpro, read-out: SARS-CoV-2 3CLpro IC50

Molecule `CC(C)(C)NC(=O)N[C@H](C(=O)N1C[C@H]2[C@@H]([C@H]1C(=O)NC(CC1CCC1)C(=O)C(N)=O)C2(C)C)C(C)(C)C` (some centres unmarked) [Boceprevir, boceprevir, reference compound] has an EC50 (SARS-CoV-2 [1]; [9]) of 15.6 µM.

Work on `O=C(Nc1ccc([N+](=O)[O-])cc1Cl)c1cccc([N+](=O)[O-])c1O` [JMX0207] yielded a CC50 at 48 h (in vitro) of 13.2 µM and an EC50 (SARS-CoV-2 [1]; [10]) of 1.22 µM.

With `CC(C)[C@H](NC(=O)c1cc(Cl)ccc1O)C(=O)Nc1ccc([N+](=O)[O-])cc1Cl` [JMX0281] the CC50 at 48 h (in vitro) was 8.32 µM and the EC50 (SARS-CoV-2 [1]; [10]) was 2.08 µM.

With `O=C(NC(Cc1ccccc1)C(=O)Nc1ccc([N+](=O)[O-])cc1Cl)c1cc(Cl)ccc1O` (centres unmarked) [JMX0285] the CC50 at 48 h (in vitro) was 6.13 µM and the EC50 (SARS-CoV-2 [1]; [10]) was 3.03 µM.

In the case of `Cl.NCCOc1ccc(Cl)cc1C(=O)NCC(=O)Nc1ccc([N+](=O)[O-])cc1Cl` [JMX0286, 2-(2-Aminoethoxy)-5-chloro-N-(2-((2-chloro-4-nitrophenyl)amino)-2-oxoethyl)benzamide hydrochloride], the side effects (SARS-CoV-2 [2]; Example 1: oral tablet 50 mg once a day for one week) is reported as “No side effects are reported”, the clinical outcome (SARS-CoV-2 [2]; Example 1: oral tablet 50 mg once a day for one week, mild COVID-19) is reported as “completely recovers” and the “Inhibition Type” value (SARS-CoV-2 3CLpro [3]; hydrochloride) is reported as “non-competitive inhibition mechanism”. For the same molecule, the “effect on Vmax of 3CLpro” value (SARS-CoV-2 3CLpro [3]) was “reduced the Vmax values”, the IC50 (SARS-CoV-2 3CLpro [4]; [11]) was 4.8 µM and the “inhibitory activity in library screen” value (SARS-CoV-2 3CLpro [4]) was “prominent inhibitory activity”. The “inhibition of cleavage of the TriPro substrate protein” value (SARS-CoV-2 3CLpro [5]; hydrochloride) was “inhibited the cleavage of the TriPro substrate protein in a dose dependent manner; also recorded: inhibit the digestion of protein substrates in a dose dependent manner”, the CC50 (A549 and Vero E6 cells; Table 1, cell line not given) was 3.78 µM and the Kd (SARS-CoV-2 3CLpro [6]; read-out: KD (SPR, steady-state affinity model)) was 9.8 µM. For the same molecule, the EC50 (SARS-CoV-2 [1]; [10]) was 2.25 µM.

With `CC(C)(C)OC(=O)NCCOc1ccc(Cl)cc1C(=O)NCC(=O)Nc1ccc([N+](=O)[O-])cc1Cl` [JMX0301, tert-Butyl(2-(4-chloro-2-((2-((2-chloro-4-nitrophenyl)amino)-2-oxoethyl)carbamoyl)phenoxy)ethyl)carbamate] the clinical outcome (SARS-CoV-2 [2]; Example 2: 100 mg with remdesivir 100 mg intravenously twice a day for three days, then 50 mg tablet, severe COVID-19) was “completely recovers”, the side effects (SARS-CoV-2 [2]; Example 2: intravenous with remdesivir, then tablet) was “No side effects are reported” and the “Inhibition Type” value (SARS-CoV-2 3CLpro [3]) was “non-competitive inhibition mechanism”. For the same molecule, the “effect on Vmax of 3CLpro” value (SARS-CoV-2 3CLpro [3]) was “reduced the Vmax values”, the IC50 (SARS-CoV-2 3CLpro [4]; [11]) was 4.5 µM and the “inhibitory activity in library screen” value (SARS-CoV-2 3CLpro [4]) was “prominent inhibitory activity”. The “inhibition of cleavage of the TriPro substrate protein” value (SARS-CoV-2 3CLpro [5]) was “inhibited the cleavage of the TriPro substrate protein in a dose dependent manner; also recorded: inhibit the digestion of protein substrates in a dose dependent manner”, the “KD (SPR, steady-state affinity model)” value (SARS-CoV-2 3CLpro [6]) was “did not show binding” and the “EC50 (μM)” value (SARS-CoV-2 [1]; Table 2, SARS-CoV-2 viral replication, cell-based antiviral assay) was “No Dose”. It also gave a Kd (SARS-CoV-2 3CLpro [7]) of 34 µM.

With `O=C(Nc1ccc(C(F)(F)F)cc1Cl)c1cc(Cl)ccc1O` [JMX0308] the “EC50 value (strong inhibition of SARS-CoV-2 virus)” value (SARS-CoV-2 [1]) was “sub-micromolar range” and the EC50 (SARS-CoV-2 [1]; [10]) was 0.806 µM.

Work on `O=C(Nc1ccc(C(F)(F)F)cc1Cl)c1cccc([N+](=O)[O-])c1O` [JMX0310, N-(2-Chloro-4-(trifluoromethyl)phenyl)-2-hydroxy-3-nitrobenzamide] yielded a CC50 (A549 and Vero E6 cells; Table 1, cell line not given) of 10.1 µM and an EC50 (SARS-CoV-2 [1]; [10]) of 2.41 µM.

For `O=C(Nc1cc(F)cc(C(F)(F)F)c1)c1cc(Cl)ccc1O` [JMX0312], the CC50 at 48 h (in vitro) was 1.97 µM and the EC50 (SARS-CoV-2 [1]; [10]) was 1.13 µM.

With `O=C(Nc1cc(F)cc(C(F)(F)F)c1)c1cccc([N+](=O)[O-])c1O` [JMX0317, N-(3-Fluoro-5-(trifluoromethyl)phenyl)-2-hydroxy-3-nitrobenzamide] the CC50 (A549 and Vero E6 cells; Table 1, cell line not given) was 11.7 µM and the EC50 (SARS-CoV-2 [1]; [10]) was 4.03 µM.

Work on `O=C(Nc1ccc(F)c(F)c1)c1cc(Cl)ccc1O` [JMX0321] yielded a CC50 at 48 h (in vitro) of 3.76 µM and an EC50 (SARS-CoV-2 [1]; [10]) of 1.19 µM.

With `O=C(Nc1cc(C(F)(F)F)cc(C(F)(F)F)c1)c1cc(Cl)ccc1O` [JMX0325] the CC50 at 48 h (in vitro) was 1.81 µM, the “EC50 value (strong inhibition of SARS-CoV-2 virus)” value (SARS-CoV-2 [1]) was “sub-micromolar range” and the EC50 (SARS-CoV-2 [1]; [10]) was 0.123 µM.

For `O=C(Nc1cc(C(F)(F)F)cc(C(F)(F)F)c1)c1cccc([N+](=O)[O-])c1O` [JMX0330, N-(3,5-Bis(trifluoromethyl)phenyl)-2-hydroxy-3-nitrobenzamide], the CC50 (A549 and Vero E6 cells; Table 1, cell line not given) was 10.2 µM, the “EC50 value (strong inhibition of SARS-CoV-2 virus)” value (SARS-CoV-2 [1]) was “sub-micromolar range” and the EC50 (SARS-CoV-2 [1]; [10]) was 0.498 µM.

`CC1(Nc2ccc(NC(=O)c3cc(Cl)ccc3O)c(Cl)c2)CCCC1` [JMX0510-2] showed a CC50 (A549 and Vero E6 cells) of 11.5 µM and an EC50 (SARS-CoV-2 [1]) of 4.88 µM.

Work on `CC(C)C[C@H](NC(=O)c1cc(Cl)ccc1O)C(=O)Nc1ccc([N+](=O)[O-])cc1Cl` [JMX0671] yielded a CC50 at 48 h (in vitro) of 8.03 µM and an EC50 (SARS-CoV-2 [1]; [10]) of 1.56 µM.

For `CC(C)[C@H](NC(=O)c1cc(Cl)ccc1O)C(=O)Nc1ccc(C(F)(F)F)cc1Cl` [JMX0672], the CC50 at 48 h (in vitro) was 8.34 µM and the EC50 (SARS-CoV-2 [1]; [10]) was 1.92 µM.

`CCC(C)[C@H](NC(=O)c1cc(Cl)ccc1O)C(=O)Nc1ccc([N+](=O)[O-])cc1Cl` (some centres unmarked) [JMX0673] gave a CC50 at 48 h (in vitro) of 5.2 µM and an EC50 (SARS-CoV-2 [1]; [10]) of 1.74 µM.

In the case of `C[C@H](NC(=O)c1cc(Cl)ccc1O)C(=O)Nc1ccc([N+](=O)[O-])cc1Cl` [JMX0674], the CC50 at 48 h (in vitro) is reported as > 10 µM and the EC50 (SARS-CoV-2 [1]; [10]) is reported as 9.75 µM.

For `CC(C)[C@H](NC(=O)c1cc(Cl)ccc1O)C(=O)Nc1cc(C(F)(F)F)cc(C(F)(F)F)c1` [JMX0679], the CC50 at 48 h (in vitro) was 7.14 µM and the EC50 (SARS-CoV-2 [1]; [10]) was 2.51 µM.

Molecule `CC(C)[C@H](NC(=O)c1cc(Cl)ccc1O)C(=O)Nc1cc(F)cc(C(F)(F)F)c1` [JMX0680] has a CC50 at 48 h (in vitro) of 10.1 µM and an EC50 (SARS-CoV-2 [1]; [10]) of 4.57 µM.

With `CC(C)[C@H](NC(=O)c1cc(Cl)ccc1O)C(=O)Nc1ccc(F)c(F)c1` [JMX0681] the CC50 at 48 h (in vitro) was > 10 µM and the EC50 (SARS-CoV-2 [1]; [10]) was 9.75 µM.

For `O=C(Nc1cc(F)cc(C(F)(F)F)c1)c1ccc(Cl)cc1O` [JMX0887], the CC50 at 48 h (in vitro) was 4.18 µM, the “EC50 value (strong inhibition of SARS-CoV-2 virus)” value (SARS-CoV-2 [1]) was “sub-micromolar range” and the EC50 (SARS-CoV-2 [1]; [10]) was 0.92 µM.

In the case of `O=C(Nc1ccc([N+](=O)[O-])cc1)c1cc(Cl)ccc1O` [JMX0895], the “EC50 value (strong inhibition of SARS-CoV-2 virus)” value (SARS-CoV-2 [1]) is reported as “sub-micromolar range” and the EC50 (SARS-CoV-2 [1]; [10]) is reported as 0.665 µM.

In the case of `O=C(Nc1ccc([N+](=O)[O-])c(Cl)c1)c1cc(Cl)ccc1O` [JMX0941], the side effects (SARS-CoV-2 [2]; Example 3: intranasal spray 10 mg once a day for 5 days) is reported as “No side effects are reported”, the “SARS-CoV-2 test on the 6th day” value (SARS-CoV-2 [2]; Example 3: intranasal spray 10 mg once a day for 5 days, asymptomatic subject) is reported as “negative for SARS-CoV-2” and the “Inhibition Type” value (SARS-CoV-2 3CLpro [3]) is reported as “non-competitive inhibition mechanism”. For the same molecule, the “effect on Vmax of 3CLpro” value (SARS-CoV-2 3CLpro [3]) was “reduced the Vmax values”, the “inhibitory activity in library screen” value (SARS-CoV-2 3CLpro [4]) was “prominent inhibitory activity” and the “inhibition of cleavage of the TriPro substrate protein” value (SARS-CoV-2 3CLpro [5]) was “inhibited the cleavage of the TriPro substrate protein in a dose dependent manner; also recorded: inhibit the digestion of protein substrates in a dose dependent manner”. It also gave an EC50 (SARS-CoV-2 [1]; [10]) of 1.75 µM and an EC50 (SARS-CoV-2 [1]; [9]) of 1.7 µM.

For `O=C(Nc1ccc([N+](=O)[O-])cc1Cl)c1cc(Cl)ccc1O` [Niclosamide, niclosamide], the EC50 (SARS-CoV; Vero E6 cells, read-out: EC50, SARS-CoV replication) is listed as < 0.1 µM, the “concentration suppressing the cytopathic effect (CPE) of SARS-CoV” value (SARS-CoV; as low as) is listed as 1 µM and the IC50 (SARS-CoV-2 3CLpro [4]) is listed as > 50 µM. The “inhibitory activity against SARS-CoV 3CLpro” value (SARS-CoV 3CLpro) was “no obvious inhibitory activity” and the “inhibition of the SARS-CoV-2 3CLpro” value (SARS-CoV-2 3CLpro [8]) was “does not inhibit”.
